Assay results reported in patent publication US20240024291A1, “Uses of Dihydroorotate Dehydrogenase Inhibitors” (University of Maryland, Baltimore, priority 2022, published 2024).

Experiments:
[1] = system: 1079 glioblastoma neurosphere line; assay: CellTiter-Glo in vitro proliferation assay; assay type: cell-based; conditions: Homo sapiens
Experimental: (§1) A Biospherix X3, hypoxic incubation system, was maintained at 37° C., 1% 02, 5% CO2, and 94% N2 (Biospherix, Ltd—Parish, NY) to conduct in vitro hypoxic experiments. Cells were plated, then incubated in normoxia overnight before transferring the culture dishes to hypoxia for the duration indicated in the main text.
(§2) Glioblastoma neurosphere lines were plated in 96-well plates at 25,000 cells per well in […] of media and treated with compound 1 in the presence or absence of 100 μM uridine. Cell Titer-Glo® Luminescent Cell Viability Assay (Promega, Madison, WI, USA) was performed 72 hours after treatment. Luminescence was determined using a Cytation 5 reader and Gen5 software package (BioTek, Winooski, VT, USA).
(§3) The compound's efficacy was examined against a collection of genetically diverse patient-derived GSC lines in vitro. The IC50 profiles of compound 1 in the seven GSC lines tested were established using the CellTiter-Glo® reagent and calculated with GraphPad software.

[2] = system: 3691 glioblastoma neurosphere line; assay: CellTiter-Glo in vitro proliferation assay; assay type: cell-based; conditions: Homo sapiens, 72 h, 3691 (table prints 3639)
Experimental: as §1, §2, §3

[3] = system: Mayo15 glioblastoma neurosphere line; assay: CellTiter-Glo in vitro proliferation assay; assay type: cell-based; conditions: Homo sapiens
Experimental: as §1, §2, §3

[4] = system: Mayo39 glioblastoma neurosphere line; assay: CellTiter-Glo in vitro proliferation assay; assay type: cell-based; conditions: Homo sapiens
Experimental: as §1, §2, §3

[5] = system: Mayo6 glioblastoma neurosphere line; assay: CellTiter-Glo in vitro proliferation assay; assay type: cell-based; conditions: Homo sapiens
Experimental: as §1, §2, §3

[6] = system: 913 PIP-FUCCI reporter cells; assay: PIP-FUCCI in vitro cell cycle assay; assay type: cell-based, human; conditions: for percentage of cells in the S phase: 48 hours (DMSO 20%)
Experimental: To monitor cell cycle progression, 913 glioblastoma neurosphere-derived cells expressing pLenti-PGK-Neo-PIP-FUCCI were first cloned. pLenti-PGK-Neo-PIP-FUCCI was from Jean Cook (Addgene plasmid #118616; n2t.net/addgene:118616; RRID:Addgene_118616) (52). Cells were then treated with either 0, 10 nM, or 100 nM compound 1 for 48 hours, stained with 1 mg/mL Hoechst for 2 hours, and visualized by direct fluorescence microscopy. A twenty-four-hour treatment with […] of the DNA replication inhibitor Aphidicolin was used as a positive control for S-phase arrest. A collection of five images per well, each set containing at least 10,000 cells, was captured for each treatment. Each treatment was performed in technical quadruplicates, and each experiment was repeated twice on different days. Images were acquired using Cytation 5 plate reader (BioTek, Winooski, VT, USA) and scored using Gen5 software. Cell cycle phases were determined by x/y plot of mVenus and mCherry intensities per nucleus and gating boundaries on the Aphidicolin control.
It has been reported that depletion of pyrimidine nucleotides leads to incomplete DNA replication and elicits a stress response that blocks cell cycle progression. […] The original design was developed in 2008 by Miyawaki and colleagues (51).

[7] = system: 08-387 neurosphere line transduced with EGFRvIll or GFP; assay: Resistance assay, EGFRvIll or GFP transduced cells; assay type: cell-based, human; parameters: dose or concentration left out as unconfirmed
Experimental: (§4) Ten thousand 08-387 or 913 glioblastoma cells per well were seeded in a 96 well plate. Post 24 hr plating, 08-387 and 913 cells were treated with a varying dosage of compound 1 or with a varying dosage of gemcitabine alone or with 100 nM of compound 1. Post 72 hr of treatment, cell viability was calculated on Alamar blue absorbance reading.
(§5) The pLV[Expressior]-mCherry:T2A:Hygro-EF1A>Luc2 (Addgene Plasmid #174665) and pLV[Exp]-Bsd-EFS>EGFRvIll:T2A:TurboGFP (Addgene Plasmid #189841) lentivirus plasmids were designed by us and constructed by VectorBuilder. These plasmids are available at Addgene.
(§6) To further evaluate the potential role of EGFR in compound 1 resistance, the 913 and 08-387 neurosphere lines were transduced with lentiviruses encoding EGFRvIll or GFP (as control) and these neurospheres were challenged with a relatively high dose of 1 mM compound 1.

[8] = system: 913 neurosphere line transduced with EGFRvIll or GFP; assay: Resistance assay, EGFRvIll or GFP transduced cells; assay type: cell-based, human; parameters: dose or concentration left out as unconfirmed
Experimental: as §4, §5, §6

[9] = system: 08-387 orthotopic xenografts; assay: Orthotopic glioblastoma xenograft, drug treatment; assay type: in vivo
Experimental: (§7) Experiments with animals were performed in compliance with institutional guidelines and regulations. Four- to six-week-old male and female NCG mice (NOD-Prkdcem26Cd52112rgem26Cd22/NjuCrl, Charles River Laboratory, Wilmington, MA) were used in all experiments in approximately equal numbers of each sex in each experimental group. The 08-387 m-Cherry Luciferase or 913 Luciferase expressing cells (1×10 5) were stereotactically injected into the right striatum as previously described (30). Two weeks after the injection of the cells, tumor growth was monitored with bioluminescence imaging using an IVIS Spectrum imaging system equipped with the Living Image software package (Perkin Elmer). Male and female mice harboring orthotopic xenografts with Radiance (p/sec/cm2/sr) equal to or greater than 1x10 6 were randomly assigned to the control or compound 1 treatment groups. Mice were dosed daily by oral gavage with either vehicle (90/10 Kollisolv® PEG400/EtOH solution) or 3 mg/kg compound 1. Animal weight was monitored daily, and mice were sacrificed when they became symptomatic.
(§8) To generate equivalent treatment groups and facilitate the tracking of xenograft growth, these cells were transduced with a mCherry:Luciferase reporter. An equal number of male and female immunodeficient mice were injected, and overall survival was the primary endpoint. Mice were imaged weekly starting two weeks after the injection and then randomized to the two treatment groups when tumor Radiance surpassed 1x10 6 photons/sec/cm^2/sr (sr=units of solid angle or steradian). Compound 1 (3 mg/kg) or vehicle were delivered daily by oral gavage.

[10] = system: 913 orthotopic xenografts; assay: Orthotopic glioblastoma xenograft, drug treatment; assay type: in vivo
Experimental: as §7, §8

Question: How did the IC50 [1]; 1079 turn out when `CCn1c(CO)nn(-c2cc(O[C@@H](C)C(F)(F)F)c(C(=O)Nc3c(F)cccc3Cl)cc2F)c1=O` [Compound 1, N-(2-chloro-6-fluorophenyl)-4-[4-ethyl-4,5-dihydro-3-(hydroxymethyl)-5-oxo-1H-1,2,4-triazol-1-yl]-5-fluoro-2-[(1S)-2,2,2-trifluoro-1-methylethoxy]-benzamide] was run?
Answer: Its IC50 is 1.2 µM.

Question: What about the IC50 ([1]; 72 h, 1079, hypoxia, 72 hours) of the same molecule?
Answer: Its IC50 is 23.7 µM.

Question: And the IC50 ([1]; 72 h, 1079, normoxia, 72 hours)?
Answer: The IC50 was 1.2 µM.

Question: What about the IC50 ([2]; hypoxia) of the same molecule?
Answer: The IC50 was 0.0122 µM.

Question: What about the IC50 ([2]; normoxia) of the same molecule?
Answer: Its IC50 is 0.0074 µM.

Question: And the IC50 ([3]; 72 h, Mayo15, hypoxia)?
Answer: The IC50 was 146 µM.

Question: What about the IC50 ([3]; 72 h, Mayo15, normoxia) of the same molecule?
Answer: Its IC50 is 64 µM.

Question: What about the IC50 ([3]; Mayo15) of the same molecule?
Answer: Its IC50 is 64 µM.

Question: What about the IC50 ([4]; 72 h, Mayo39, hypoxia) of the same molecule?
Answer: The IC50 was 153 µM.

Question: And the IC50 ([4]; 72 h, Mayo39, normoxia)?
Answer: Its IC50 is 182 µM.

Question: And the IC50 ([4]; Mayo39)?
Answer: The IC50 was 182 µM.

Question: What about the IC50 ([5]; 72 h, Mayo6, hypoxia) of the same molecule?
Answer: Its IC50 is 228 µM.

Question: And the IC50 ([5]; 72 h, Mayo6, normoxia)?
Answer: The IC50 was 164 µM.

Question: What about the IC50 ([5]; Mayo6) of the same molecule?
Answer: The IC50 was 164 µM.

Question: What about the “percentage of cells in the S phase” value ([6]; 10 nM) of the same molecule?
Answer: Its value is 70%.

Question: And the “percentage of cells in the S phase” value ([6]; 100 nM)?
Answer: The value was 64%.

Question: What about the “cell cycle effects with uridine supplementation” value ([6]; uridine supplementation) of the same molecule?
Answer: Its value is “completely blocked”.

Question: What about the surviving cell fraction ([7]; 08-387 EGFRvIll) of the same molecule?
Answer: The surviving cell fraction was 36.7%.

Question: What about the surviving cell fraction ([7]; 08-387 GFP (control)) of the same molecule?
Answer: The surviving cell fraction was 4%.

Question: What about the surviving cell fraction ([8]; 913 EGFRvIll) of the same molecule?
Answer: Its surviving cell fraction is 55.2%.

Question: And the surviving cell fraction ([8]; 913 GFP (control))?
Answer: Its surviving cell fraction is 27.9%.

Question: And the “tumor radiance compared to controls” value ([9]; 08-387, week 1, 3 mg/kg daily oral)?
Answer: The value was “roughly the same”.

Question: What about the “tumor radiance lower compared to controls” value ([9]; 08-387, week 2, 3 mg/kg daily oral) of the same molecule?
Answer: Its value is 47%.

Question: What about the “tumor radiance lower compared to controls” value ([9]; 08-387, week 3, 3 mg/kg daily oral) of the same molecule?
Answer: Its value is 75%.

Question: And the “body weight / tolerability” value ([9]; 08-387 xenograft mice, 3 mg/kg daily oral gavage)?
Answer: The value was “no significant weight loss”.

Question: And the “median survival from initiation of treatment” value ([9]; 08-387 xenografts, 3 mg/kg daily oral (vehicle 12 days))?
Answer: Its value is 19 days.

Question: And the “increase in median survival” value ([9]; 08-387 xenografts, vs vehicle)?
Answer: The value was 58%.

Question: And the “tumor radiance lower than in vehicle controls” value (“tumor radiance lower than” for short) ([10]; 913, week 1, 3 mg/kg daily oral)?
Answer: The value was 6.5%.

Question: And the “tumor radiance lower than” value ([10]; 913, week 2, 3 mg/kg daily oral)?
Answer: The value was 41%.

Question: What about the “tumor radiance lower than” value ([10]; 913, week 3, 3 mg/kg daily oral) of the same molecule?
Answer: Its value is 52%.

Question: What about the “body weight / tolerability” value ([10]; 913 xenograft mice, 3 mg/kg daily oral gavage) of the same molecule?
Answer: The value was “no significant weight loss”.

Question: What about the “median survival from initiation of treatment” value ([10]; 913 xenografts, 3 mg/kg daily oral (vehicle 32 days)) of the same molecule?
Answer: Its value is 41 days.

Question: What about the “increase in median survival” value ([10]; 913 xenografts, vs vehicle) of the same molecule?
Answer: The value was 28%.
